Laboratory results taken from US20240190880A1 (THE REGENTS OF THE UNIVERSITY OF MICHIGAN, priority 2021, published 2024).
Like-named read-outs stand apart in the source and are kept apart here.

Biological target: T1, ER (Homo sapiens, UniProt P03372)
T1 construct: host or cells: T47D and MCF7 human breast cancer cells
T1 sequence (P03372 1-595): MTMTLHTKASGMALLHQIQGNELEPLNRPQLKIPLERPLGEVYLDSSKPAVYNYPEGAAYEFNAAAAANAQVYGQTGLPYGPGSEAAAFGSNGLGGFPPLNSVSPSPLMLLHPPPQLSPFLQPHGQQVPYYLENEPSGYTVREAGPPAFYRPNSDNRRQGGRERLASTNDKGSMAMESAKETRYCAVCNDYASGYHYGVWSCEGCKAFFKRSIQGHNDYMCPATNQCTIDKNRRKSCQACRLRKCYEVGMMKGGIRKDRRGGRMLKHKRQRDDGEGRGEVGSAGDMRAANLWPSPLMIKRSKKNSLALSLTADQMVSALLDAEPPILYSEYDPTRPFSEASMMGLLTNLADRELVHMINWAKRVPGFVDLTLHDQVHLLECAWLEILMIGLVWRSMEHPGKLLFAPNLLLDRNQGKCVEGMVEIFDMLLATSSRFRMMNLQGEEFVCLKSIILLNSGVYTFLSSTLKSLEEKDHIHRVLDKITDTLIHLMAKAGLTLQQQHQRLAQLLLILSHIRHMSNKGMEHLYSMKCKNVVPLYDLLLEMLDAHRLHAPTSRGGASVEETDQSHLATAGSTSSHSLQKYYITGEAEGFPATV
Experiment: ER degradation activity, in-cell western blot analysis in T47D cells
Assay type: cell-based
Experimental: ER degradation activity was evaluated in the human breast cancer cell line T47D and MCF7 purchased from the American Type Culture Collection (ATCC), Manassas, VA, and maintained and cultured in Dulbecco's Modified Eagle's medium (DMEM) containing 10% fetal bovine serum, 1 unit/ml of penicillin and 1 μg/ml of streptomycin.
The protocol for the in-cell western blot analysis: a. seed cells in black-sided/clear bottom 96- or 384-well plates at 40,000 or 10,000 cells/well, overnight; b. add diluted compounds (final 0.5% DMSO), 16 hours. […] RT 2 h, gentle shaking. Negative control: cells plus secondary antibodies (no primary antibodies); e. wash ×4 with PBS+0.05-0.1% Tween 20, gentel shaking; f. anti-rabbit-680 and anti-mouse-800 (both 1:1000 in LiCor block+0.05% Tween20, RT 1 h, gentle shaking, no light. LI-COR: 0.2% to reduce background; g. wash×4 with PBS+0.05% Tween 20, gental shaking; h. add 100 μL or 25 μL of PBS to each well and read on CLX plate reader. The relative ER percentage in treated cells were obtained by comparing the values of treated wells to those in untreated and DMSO-treated wells as 100%.

[1] = 16 hours, Table A does not say which cell line (T47D or MCF7), read-out: Potency (DC50)
[2] = compounds 16 hours, Table A does not say whether T47D or MCF7, read-out: Potency (DC50)

| SMILES | DC50 [1] | DC50 [2] |
| --- | --- | --- |
| O=C1CCC(N2C(=O)c3cc4c(cc3C2=O)CN(CC(=O)N2CCC3(CC2)CCN(c2ccc([C@@H]5c6ccc(O)cc6CC[C@@H]5c5ccc(F)cc5)cc2)C3)C4)C(=O)N1 (stereo partly drawn) [E 186, 2-(2,6-dioxopiperidin-3-yl)-6-(2-(2-(4-((1R,2S)-2-(4-fluorophenyl)-6-hydroxy-1,2,3,4-tetrahydronaphthalen-1-yl)phenyl)-2,8-diazaspiro[4.5]decan-8-yl)-2-oxoethyl)-6,7-dihydropyrrolo[3,4-f]isoindole-1,3(2H,5H)-dione] | 0.01 to 0.1 µM | – |
| O=C1CCC(N2C(=O)c3cc4c(cc3C2=O)CN(C(=O)[C@H]2CC[C@H](N3CC(Nc5ccc([C@H]6c7ccc(O)cc7CC[C@H]6c6ccccc6)cc5)C3)CC2)C4)C(=O)N1 (stereo partly drawn) [E 391, 2-(2,6-dioxopiperidin-3-yl)-6-((1S,4r)-4-(3-((4-((1S,2R)-6-hydroxy-2-phenyl-1,2,3,4-tetrahydronaphthalen-1-yl)phenyl)amino)azetidin-1-yl)cyclohexane-1-carbonyl)-6,7-dihydropyrrolo[3,4-f]isoindole-1,3(2H,5H)-dione] | > 0.1 µM | – |
| O=C1CCC(N2C(=O)c3cc4c(cc3C2=O)CN(CCC(=O)NC2CCN(c3ccc([C@@H]5c6ccc(O)cc6CC[C@@H]5c5ccccc5)cc3)CC2)C4)C(=O)N1 (stereo partly drawn) [E332, 3-(6-(2,6-dioxopiperidin-3-yl)-5,7-dioxo-3,5,6,7-tetrahydropyrrolo[3,4-f]isoindol-2(1H)-yl)-N-(1-(4-((1R,2S)-6-hydroxy-2-phenyl-1,2,3,4-tetrahydronaphthalen-1-yl)phenyl)piperidin-4-yl)propanamide] | > 0.1 µM | – |
| C[C@@H]1Cc2c([nH]c3ccccc23)[C@@H](c2c(F)cc(N3CC[C@@H](CN4CCC(C(=O)N5Cc6cc7c(cc6C5)C(=O)N(C5CCC(=O)NC5=O)C7)CC4)C3)cc2F)N1CC(F)F (stereo partly drawn) [E 90, 3-(6-(1-(((S)-1-(4-((1R,3R)-2-(2,2-difluoroethyl)-3-methyl-2,3,4,9-tetrahydro-1H-pyrido[3,4-b]indol-1-yl)-3,5-difluorophenyl)pyrrolidin-3-yl)methyl)piperidine-4-carbonyl)-1-oxo-3,5,6,7-tetrahydropyrrolo[3,4-f]isoindol-2(1H)-yl)piperidine-2,6-dione] | < 0.01 µM | – |
| C[C@@H]1Cc2c([nH]c3ccccc23)[C@@H](c2ccc(C3=CCC4(CC3)CCN(C(=O)CN3Cc5cc6c(cc5C3)C(=O)N(C3CCC(=O)NC3=O)C6=O)CC4)cc2F)N1CC(F)F (stereo partly drawn) [E 477, 6-(2-(9-(4-((1R,3R)-2-(2,2-difluoroethyl)-3-methyl-2,3,4,9-tetrahydro-1H-pyrido[3,4-b]indol-1-yl)-3-fluorophenyl)-3-azaspiro[5.5]undec-8-en-3-yl)-2-oxoethyl)-2-(2,6-dioxopiperidin-3-yl)-6,7-dihydropyrrolo[3,4-f]isoindole-1,3(2H,5H)-dione] | – | > 0.1 µM |
| C[C@@H]1Cc2c([nH]c3ccccc23)[C@@H](c2c(F)cc(N3CCC(C(=O)N4CC(N5Cc6cc7c(cc6C5)C(=O)N(C5CCC(=O)NC5=O)C7=O)C4)CC3)cc2F)N1CC(F)F (stereo partly drawn) [E 235, 6-(1-(1-(4-((1R,3R)-2-(2,2-difluoroethyl)-3-methyl-2,3,4,9-tetrahydro-1H-pyrido[3,4-b]indol-1-yl)-3,5-difluorophenyl)piperidine-4-carbonyl)azetidin-3-yl)-2-(2,6-dioxopiperidin-3-yl)-6,7-dihydropyrrolo[3,4-f]isoindole-1,3(2H,5H)-dione] | > 0.1 µM | – |
| O=C1CCC(N2C(=O)c3cc4c(cc3C2=O)CN(CC(=O)N2CCC3(CC2)CCN(c2ccc([C@H]5c6ccc(O)cc6CC[C@H]5c5ccccc5)cc2)CC3)C4)C(=O)N1 (stereo partly drawn) [E 437, 2-(2,6-dioxopiperidin-3-yl)-6-(2-(9-(4-((1S,2R)-6-hydroxy-2-phenyl-1,2,3,4-tetrahydronaphthalen-1-yl)phenyl)-3,9-diazaspiro[5.5]undecan-3-yl)-2-oxoethyl)-6,7-dihydropyrrolo[3,4-f]isoindole-1,3(2H,5H)-dione] | – | > 0.1 µM |
| C[C@@H]1Cc2c([nH]c3ccccc23)[C@@H](c2c(F)cc(N3CCC(CN4Cc5cc6c(cc5C4)C(=O)N(C4CCC(=O)NC4=O)C6)CC3)cc2F)N1CC(F)F (stereo partly drawn) [E 147, 3-(6-((1-(4-((1R,3R)-2-(2,2-difluoroethyl)-3-methyl-2,3,4,9-tetrahydro-1H-pyrido[3,4-b]indol-1-yl)-3,5-difluorophenyl)piperidin-4-yl)methyl)-1-oxo-3,5,6,7-tetrahydropyrrolo[3,4-f]isoindol-2(1H)-yl)piperidine-2,6-dione] | > 0.1 µM | – |
| C[C@@H]1Cc2c([nH]c3ccccc23)[C@@H](c2ccc(C3CCC(C(=O)N4CCC(N5Cc6cc7c(cc6C5)C(=O)N(C5CCC(=O)NC5=O)C7=O)CC4)CC3)cn2)N1CC(F)F (stereo partly drawn) [E 313, 6-(1-(4-(6-((1S,3R)-2-(2,2-difluoroethyl)-3-methyl-2,3,4,9-tetrahydro-1H-pyrido[3,4-b]indol-1-yl)pyridin-3-yl)cyclohexane-1-carbonyl)piperidin-4-yl)-2-(2,6-dioxopiperidin-3-yl)-6,7-dihydropyrrolo[3,4-f]isoindole-1,3(2H,5H)-dione] | 0.01 to 0.1 µM | – |
| C[C@@H]1Cc2c([nH]c3ccccc23)[C@@H](c2c(F)cc(N3CCC4(CC3)CC(C(=O)N3CCC(N5Cc6cc7c(cc6C5)C(=O)N(C5CCC(=O)NC5=O)C7)CC3)C4)cc2F)N1CC(F)F (stereo partly drawn) [E 101, 3-(6-(1-(7-(4-((1R,3R)-2-(2,2-difluoroethyl)-3-methyl-2,3,4,9-tetrahydro-1H-pyrido[3,4-b]indol-1-yl)-3,5-difluorophenyl)-7-azaspiro[3.5]nonane-2-carbonyl)piperidin-4-yl)-1-oxo-3,5,6,7-tetrahydropyrrolo[3,4-f]isoindol-2(1H)-yl)piperidine-2,6-dione] | < 0.01 µM | – |
| C[C@@H]1Cc2c([nH]c3ccccc23)[C@@H](c2cnc(N3CCC(CN4CCC(N5Cc6cc7c(cc6C5)C(=O)N(C5CCC(=O)NC5=O)C7=O)CC4)CC3)nc2)N1CC(F)F (stereo partly drawn) [E 261, 6-(1-((1-(5-((1R,3R)-2-(2,2-difluoroethyl)-3-methyl-2,3,4,9-tetrahydro-1H-pyrido[3,4-b]indol-1-yl)pyrimidin-2-yl)piperidin-4-yl)methyl)piperidin-4-yl)-2-(2,6-dioxopiperidin-3-yl)-6,7-dihydropyrrolo[3,4-f]isoindole-1,3(2H,5H)-dione] | 0.01 to 0.1 µM | – |
| O=C1CCC(N2C(=O)c3cc4c(cc3C2=O)CCN(CC(=O)N2CC3(CCN(c5ccc([C@@H]6c7ccc(O)cc7CC[C@@H]6c6ccccc6)cc5)CC3)C2)CC4)C(=O)N1 (stereo partly drawn) [E 169, 2-(2,6-dioxopiperidin-3-yl)-7-(2-(7-(4-((1R,2S)-6-hydroxy-2-phenyl-1,2,3,4-tetrahydronaphthalen-1-yl)phenyl)-2,7-diazaspiro[3.5]nonan-2-yl)-2-oxoethyl)-6,7,8,9-tetrahydroazepino[4,5-f]isoindole-1,3(2H,5H)-dione] | > 0.1 µM | – |
| O=C1CCC(N2C(=O)c3cc4c(cc3C2=O)CN(C(=O)CN2CCC3(CC2)CCN(c2ccc([C@@H]5c6ccc(B(O)O)cc6CC[C@@H]5c5ccccc5)cc2)CC3)C4)C(=O)N1 (mixture of isomers) [E 181, Rac-((5R,6S)-5-(4-(9-(2-(6-(2,6-dioxopiperidin-3-yl)-5,7-dioxo-3,5,6,7-tetrahydropyrrolo[3,4-f]isoindol-2(1H)-yl)-2-oxoethyl)-3,9-diazaspiro[5.5]undecan-3-yl)phenyl)-6-phenyl-5,6,7,8-tetrahydronaphthalen-2-yl)boronic acid] | > 0.1 µM | – |
